# Reference: the supplement of paper PMC10307832
# Legend:
# Assay in all cases: relative viability (nuclei count vs DMSO), 5 days (fraction); higher = more cells survive
# NCI-H727 = test system: NCI-H727
# In short: (§1)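 For relative viability, nuclei counts in treated wells were divided by those in vehicle wells. Lung cancer cell lines had been pin-tool dosed in 1536-well plates the day after seeding and cultured for 5 days, then fixed and stained in one step (final 0.05% Triton X-100, 1% formaldehyde, 1 ug/ml Hoechst) and imaged at 4×. Doses were one drug alone or a fixed anchor-drug dose plus five library-drug doses (not always all listed) in √10 steps, and values are duplicate-plate medians.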
# LOU-NH91 = test system: LOU-NH91
# In short: as §1
# NCI-H460 = test system: NCI-H460
# In short: as §1
# ChaGo-K-1 = test system: ChaGo-K-1
# In short: as §1
# EMC-BAC-2 = test system: EMC-BAC-2
# In short: as §1
# NCI-H2126 = test system: NCI-H2126
# In short: as §1
# NCI-H647 = test system: NCI-H647
# In short: as §1
# NCI-H2347 = test system: NCI-H2347
# In short: as §1
# NCI-H2405 = test system: NCI-H2405
# In short: as §1
# NCI-H650 = test system: NCI-H650
# In short: as §1
# HOP-62 = test system: HOP-62
# In short: as §1
# NCI-H1437 = test system: NCI-H1437
# In short: as §1
# LCLC-103H = test system: LCLC-103H
# In short: as §1
# HCC-44 = test system: HCC-44
# In short: as §1
# EPLC-272H = test system: EPLC-272H
# In short: as §1
# NCI-H441 = test system: NCI-H441
# In short: as §1
# NCI-H520 = test system: NCI-H520
# In short: as §1
# NCI-H2009 = test system: NCI-H2009
# In short: as §1
# NCI-H2023 = test system: NCI-H2023
# In short: as §1
# SW 1573 = test system: SW 1573
# In short: as §1
# NCI-H23 = test system: NCI-H23
# In short: as §1
compound,measurement,setting,value
O=C(O)CCCCC(CCSCc1ccccc1)SCc1ccccc1 (centres undefined) [CPI-613] + CC(C)C[C@H](NC(=O)[C@H](Cc1ccccc1)NC(=O)c1cnccn1)B(O)O [Bortezomib] (partner 0.002 µM),relative viability,NCI-H727; first compound 5 µM,0.806
same,relative viability,NCI-H727; first compound 15.81 µM,0.782
same,relative viability,NCI-H727; first compound 50 µM,0.792
same,relative viability,NCI-H727; first compound 158.11 µM,0.665
same,relative viability,NCI-H727; first compound 500 µM,0.0714
same,relative viability,LOU-NH91; first compound 5 µM,0.49
same,relative viability,LOU-NH91; first compound 15.81 µM,0.524
same,relative viability,LOU-NH91; first compound 50 µM,0.393
same,relative viability,LOU-NH91; first compound 158.11 µM,0.435
same,relative viability,LOU-NH91; first compound 500 µM,0.467
same,relative viability,NCI-H460; first compound 5 µM,1.07
same,relative viability,NCI-H460; first compound 15.81 µM,1.12
same,relative viability,NCI-H460; first compound 50 µM,0.895
same,relative viability,NCI-H460; first compound 158.11 µM,0.445
same,relative viability,NCI-H460; first compound 500 µM,0.0063
same,relative viability,ChaGo-K-1; first compound 5 µM,0.836
same,relative viability,ChaGo-K-1; first compound 15.81 µM,0.855
same,relative viability,ChaGo-K-1; first compound 50 µM,0.804
same,relative viability,ChaGo-K-1; first compound 158.11 µM,0.671
same,relative viability,ChaGo-K-1; first compound 500 µM,0.554
same,relative viability,EMC-BAC-2; first compound 5 µM,1.06
same,relative viability,EMC-BAC-2; first compound 15.81 µM,0.993
same,relative viability,EMC-BAC-2; first compound 50 µM,1.07
same,relative viability,EMC-BAC-2; first compound 158.11 µM,0.936
same,relative viability,EMC-BAC-2; first compound 500 µM,0.4
same,relative viability,NCI-H2126; first compound 5 µM,1.11
same,relative viability,NCI-H2126; first compound 15.81 µM,1.06
same,relative viability,NCI-H2126; first compound 50 µM,1.04
same,relative viability,NCI-H2126; first compound 158.11 µM,0.669
same,relative viability,NCI-H2126; first compound 500 µM,0.761
same,relative viability,NCI-H647; first compound 5 µM,0.861
same,relative viability,NCI-H647; first compound 15.81 µM,0.8
same,relative viability,NCI-H647; first compound 50 µM,0.962
same,relative viability,NCI-H647; first compound 158.11 µM,0.0678
same,relative viability,NCI-H647; first compound 500 µM,0.0092
same,relative viability,NCI-H2347; first compound 5 µM,0.606
same,relative viability,NCI-H2347; first compound 15.81 µM,0.833
same,relative viability,NCI-H2347; first compound 50 µM,1.2
same,relative viability,NCI-H2347; first compound 500 µM,1
same,relative viability,NCI-H2405; first compound 5 µM,0.986
same,relative viability,NCI-H2405; first compound 15.81 µM,0.961
same,relative viability,NCI-H2405; first compound 50 µM,0.891
same,relative viability,NCI-H2405; first compound 158.11 µM,0.913
same,relative viability,NCI-H2405; first compound 500 µM,0.852
same,relative viability,NCI-H650; first compound 5 µM,0.828
same,relative viability,NCI-H650; first compound 15.81 µM,0.617
same,relative viability,NCI-H650; first compound 50 µM,0.92
same,relative viability,NCI-H650; first compound 158.11 µM,0.689
same,relative viability,NCI-H650; first compound 500 µM,0.452
same,relative viability,HOP-62; first compound 5 µM,0.511
same,relative viability,HOP-62; first compound 15.81 µM,0.545
same,relative viability,HOP-62; first compound 50 µM,1.26
same,relative viability,HOP-62; first compound 158.11 µM,0.464
same,relative viability,HOP-62; first compound 500 µM,0.0422
same,relative viability,NCI-H1437; first compound 5 µM,0.479
same,relative viability,NCI-H1437; first compound 15.81 µM,0.397
same,relative viability,NCI-H1437; first compound 50 µM,0.493
same,relative viability,NCI-H1437; first compound 158.11 µM,0.115
same,relative viability,NCI-H1437; first compound 500 µM,0.0227
same,relative viability,LCLC-103H; first compound 5 µM,1.08
same,relative viability,LCLC-103H; first compound 15.81 µM,0.94
same,relative viability,LCLC-103H; first compound 50 µM,0.966
same,relative viability,LCLC-103H; first compound 158.11 µM,0.985
same,relative viability,LCLC-103H; first compound 500 µM,1.06
same,relative viability,HCC-44; first compound 5 µM,0.878
same,relative viability,HCC-44; first compound 15.81 µM,0.832
same,relative viability,HCC-44; first compound 50 µM,0.913
same,relative viability,HCC-44; first compound 158.11 µM,0.596
same,relative viability,HCC-44; first compound 500 µM,0.0155
same,relative viability,EPLC-272H; first compound 5 µM,0.937
same,relative viability,EPLC-272H; first compound 15.81 µM,0.859
same,relative viability,EPLC-272H; first compound 50 µM,1.1
same,relative viability,EPLC-272H; first compound 158.11 µM,0.778
same,relative viability,EPLC-272H; first compound 500 µM,0.93
same,relative viability,NCI-H441; first compound 5 µM,0.447
same,relative viability,NCI-H441; first compound 15.81 µM,0.44
same,relative viability,NCI-H441; first compound 50 µM,0.537
same,relative viability,NCI-H441; first compound 158.11 µM,0.129
same,relative viability,NCI-H441; first compound 500 µM,0.005
same,relative viability,NCI-H520; first compound 5 µM,0.756
same,relative viability,NCI-H520; first compound 15.81 µM,0.421
same,relative viability,NCI-H520; first compound 50 µM,0.858
same,relative viability,NCI-H520; first compound 158.11 µM,0.169
same,relative viability,NCI-H520; first compound 500 µM,0.0871
same,relative viability,NCI-H2009; first compound 5 µM,1.07
same,relative viability,NCI-H2009; first compound 15.81 µM,0.942
same,relative viability,NCI-H2009; first compound 50 µM,0.884
same,relative viability,NCI-H2009; first compound 158.11 µM,0.0722
same,relative viability,NCI-H2009; first compound 500 µM,0.0082
same,relative viability,NCI-H2023; first compound 5 µM,0.932
same,relative viability,NCI-H2023; first compound 15.81 µM,0.947
same,relative viability,NCI-H2023; first compound 50 µM,0.961
same,relative viability,NCI-H2023; first compound 158.11 µM,0.042
same,relative viability,NCI-H2023; first compound 500 µM,0.0072
same,relative viability,SW 1573; first compound 5 µM,0.951
same,relative viability,SW 1573; first compound 15.81 µM,0.985
same,relative viability,SW 1573; first compound 50 µM,0.979
same,relative viability,SW 1573; first compound 158.11 µM,0.884
same,relative viability,SW 1573; first compound 500 µM,0.802
same,relative viability,NCI-H23; first compound 5 µM,0.958
same,relative viability,NCI-H23; first compound 15.81 µM,1.1
same,relative viability,NCI-H23; first compound 50 µM,0.895
same,relative viability,NCI-H23; first compound 158.11 µM,0.175
same,relative viability,NCI-H23; first compound 500 µM,0.0214
